“And” between values parts separate entries of the source, which are not always exact repeats. Equal values may be shown once.
Tested on: NCI/ADR-RES complex spheroid viability
Experiment: Anticancer human tumor NCI/ADR-RES cell line growth inhibition;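 note: spheroids exposed to compounds for 7 days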;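 for viability, T/C: 100% = DMSO vehicle treated spheroids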
Conditions: for viability, T/C: stronger effect = lower value
Outline: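 Multicellular complex spheroids of tumor cells with human endothelial cells (HUVEC) and mesenchymal stem cells; the LSD1 inhibitor iadademstat was combined with standard-of-care or investigational agents. Top concentration at or near clinical Cmax, half-log dilutions; final DMSO ≤0.25%.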

[1] = curve of first compound, second compound 0.1 µM
[2] = curve of first compound, second compound 0.316 µM
[3] = curve of first compound, second compound 1 µM
[4] = curve of first compound, second compound 3.16 µM
[5] = curve of first compound, second compound 10 µM

Question: For `Nc1ccn(C2OC(CO)C(O)C2(F)F)c(=O)n1` (centres undefined) + NC1CCC(NC2CC2c2ccccc2)CC1, which IC50 [1] is on record?
Answer: < 0.949 nM

Question: What about the IC50 [2] of the same compound?
Answer: < 0.949 nM

Question: And the IC50 [3]?
Answer: < 0.949 nM

Question: And the IC50 [4]?
Answer: < 0.949 nM

Question: And the IC50 [5]?
Answer: < 0.949 nM

Question: What about the viability, T/C (second compound 0.1 µM, first compound 0.000949 µM) of the same compound?
Answer: 2.74%

Question: And the viability, T/C (second compound 0.1 µM, first compound 0.003 µM)?
Answer: 4.03%

Question: And the viability, T/C (second compound 0.1 µM, first compound 0.00949 µM)?
Answer: 2.54%

Question: What about the viability, T/C (second compound 0.1 µM, first compound 0.03 µM) of the same compound?
Answer: 2.78%

Question: What about the viability, T/C (second compound 0.1 µM, first compound 0.0949 µM) of the same compound?
Answer: 2.85%

Question: And the viability, T/C (second compound 0.1 µM, first compound 0.3 µM)?
Answer: 3.22%

Question: What about the viability, T/C (second compound 0.316 µM, first compound 0.000949 µM) of the same compound?
Answer: 4.09%

Question: And the viability, T/C (second compound 0.316 µM, first compound 0.003 µM)?
Answer: 4.64%

Question: What about the viability, T/C (second compound 0.316 µM, first compound 0.00949 µM) of the same compound?
Answer: 2.74%

Question: And the viability, T/C (second compound 0.316 µM, first compound 0.03 µM)?
Answer: 3.17%

Question: And the viability, T/C (second compound 0.316 µM, first compound 0.0949 µM)?
Answer: 1.83%

Question: What about the viability, T/C (second compound 0.316 µM, first compound 0.3 µM) of the same compound?
Answer: 5.17%

Question: What about the viability, T/C (second compound 1 µM, first compound 0.000949 µM) of the same compound?
Answer: 3.13%

Question: What about the viability, T/C (second compound 1 µM, first compound 0.003 µM) of the same compound?
Answer: 3.5%

Question: What about the viability, T/C (second compound 1 µM, first compound 0.00949 µM) of the same compound?
Answer: 3.1%

Question: What about the viability, T/C (second compound 1 µM, first compound 0.03 µM) of the same compound?
Answer: 2.71%

Question: And the viability, T/C (second compound 1 µM, first compound 0.0949 µM)?
Answer: 2.01%

Question: What about the viability, T/C (second compound 1 µM, first compound 0.3 µM) of the same compound?
Answer: 1.76%

Question: What about the viability, T/C (second compound 3.16 µM, first compound 0.000949 µM) of the same compound?
Answer: 2.3%

Question: And the viability, T/C (second compound 3.16 µM, first compound 0.003 µM)?
Answer: 3.42%

Question: And the viability, T/C (second compound 3.16 µM, first compound 0.00949 µM)?
Answer: 2.96%

Question: What about the viability, T/C (second compound 3.16 µM, first compound 0.03 µM) of the same compound?
Answer: 1.75%

Question: What about the viability, T/C (second compound 3.16 µM, first compound 0.0949 µM) of the same compound?
Answer: 0.86%

Question: What about the viability, T/C (second compound 3.16 µM, first compound 0.3 µM) of the same compound?
Answer: 2.49%

Question: What about the viability, T/C (second compound 10 µM, first compound 0.000949 µM) of the same compound?
Answer: 1.69%

Question: And the viability, T/C (second compound 10 µM, first compound 0.003 µM)?
Answer: 2.17%

Question: And the viability, T/C (second compound 10 µM, first compound 0.00949 µM)?
Answer: 2.05%

Question: And the viability, T/C (second compound 10 µM, first compound 0.03 µM)?
Answer: 2.1%

Question: And the viability, T/C (second compound 10 µM, first compound 0.0949 µM)?
Answer: 5.19%

Question: What about the viability, T/C (second compound 10 µM, first compound 0.3 µM) of the same compound?
Answer: 0.69%

Question: With `O=C(C=Cn1cnc(-c2cc(C(F)(F)F)cc(C(F)(F)F)c2)n1)NNc1cnccn1` as the compound, how does the viability, T/C (compound 0.00316 µM) read?
Answer: 69.8% and 61.6%

Question: What about the viability, T/C (compound 0.01 µM) of the same compound?
Answer: 28.8% and 22.1%

Question: What about the viability, T/C (compound 0.0316 µM) of the same compound?
Answer: 20.3% and 16.5%

Question: And the viability, T/C (compound 0.1 µM)?
Answer: 10.6% and 5.99%

Question: What about the viability, T/C (compound 0.316 µM) of the same compound?
Answer: 6.07% and 1.5%

Question: What about the viability, T/C (compound 1 µM) of the same compound?
Answer: 2.27% and 0.91%

Question: And the IC50 (curve of compound)?
Answer: 5.78 nM and 4.49 nM

Question: How did the IC50 [1] turn out when `CC(C)c1c(-c2ccccc2)nc2c(C#N)c[nH]n2c1=O` + NC1CCC(NC2CC2c2ccccc2)CC1 was run?
Answer: > 10000 nM

Question: And the IC50 [2]?
Answer: > 10000 nM

Question: What about the IC50 [3] of the same compound?
Answer: > 10000 nM

Question: What about the IC50 [4] of the same compound?
Answer: > 10000 nM

Question: And the IC50 [5]?
Answer: > 10000 nM

Question: And the viability, T/C (second compound 0.1 µM, first compound 0.0316 µM)?
Answer: 102%

Question: What about the viability, T/C (second compound 0.1 µM, first compound 0.1 µM) of the same compound?
Answer: 111%

Question: What about the viability, T/C (second compound 0.1 µM, first compound 0.316 µM) of the same compound?
Answer: 109%

Question: What about the viability, T/C (second compound 0.1 µM, first compound 1 µM) of the same compound?
Answer: 100%

Question: What about the viability, T/C (second compound 0.1 µM, first compound 3.16 µM) of the same compound?
Answer: 99.1%

Question: What about the viability, T/C (second compound 0.1 µM, first compound 10 µM) of the same compound?
Answer: 105%

Question: What about the viability, T/C (second compound 0.316 µM, first compound 0.0316 µM) of the same compound?
Answer: 102%

Question: And the viability, T/C (second compound 0.316 µM, first compound 0.1 µM)?
Answer: 112%

Question: What about the viability, T/C (second compound 0.316 µM, first compound 0.316 µM) of the same compound?
Answer: 105%

Question: What about the viability, T/C (second compound 0.316 µM, first compound 1 µM) of the same compound?
Answer: 113%

Question: What about the viability, T/C (second compound 0.316 µM, first compound 3.16 µM) of the same compound?
Answer: 103%

Question: And the viability, T/C (second compound 0.316 µM, first compound 10 µM)?
Answer: 98.4%

Question: What about the viability, T/C (second compound 1 µM, first compound 0.0316 µM) of the same compound?
Answer: 108%

Question: And the viability, T/C (second compound 1 µM, first compound 0.1 µM)?
Answer: 111%

Question: What about the viability, T/C (second compound 1 µM, first compound 0.316 µM) of the same compound?
Answer: 110%

Question: And the viability, T/C (second compound 1 µM, first compound 1 µM)?
Answer: 107%

Question: And the viability, T/C (second compound 1 µM, first compound 3.16 µM)?
Answer: 104%

Question: And the viability, T/C (second compound 1 µM, first compound 10 µM)?
Answer: 104%

Question: And the viability, T/C (second compound 3.16 µM, first compound 0.0316 µM)?
Answer: 105%

Question: What about the viability, T/C (second compound 3.16 µM, first compound 0.1 µM) of the same compound?
Answer: 104%

Question: What about the viability, T/C (second compound 3.16 µM, first compound 0.316 µM) of the same compound?
Answer: 108%

Question: And the viability, T/C (second compound 3.16 µM, first compound 1 µM)?
Answer: 107%

Question: What about the viability, T/C (second compound 3.16 µM, first compound 3.16 µM) of the same compound?
Answer: 105%

Question: And the viability, T/C (second compound 3.16 µM, first compound 10 µM)?
Answer: 97.3%

Question: What about the viability, T/C (second compound 10 µM, first compound 0.0316 µM) of the same compound?
Answer: 105%

Question: What about the viability, T/C (second compound 10 µM, first compound 0.1 µM) of the same compound?
Answer: 98.9%

Question: What about the viability, T/C (second compound 10 µM, first compound 0.316 µM) of the same compound?
Answer: 98.6%

Question: What about the viability, T/C (second compound 10 µM, first compound 1 µM) of the same compound?
Answer: 97.5%

Question: What about the viability, T/C (second compound 10 µM, first compound 3.16 µM) of the same compound?
Answer: 97.1%

Question: And the viability, T/C (second compound 10 µM, first compound 10 µM)?
Answer: 91.5%

Question: Which results are given for `Nc1ncn(C2CC(O)C(CO)S2)c(=O)n1` (centres undefined)?
Answer: viability, T/C (compound 0.000949 µM): 86.4% and 84.4%; viability, T/C (compound 0.003 µM): 75.9% and 67.9%; viability, T/C (compound 0.00949 µM): 53.8% and 40.1%; viability, T/C (compound 0.03 µM): 38.7% and 27.5%; viability, T/C (compound 0.0949 µM): 21.2% and 11.8%; viability, T/C (compound 0.3 µM): 6.02% and 3.16%; IC50 (curve of compound): 14.1 nM and 6.82 nM
